In test [1] the test system is H526 cells. As to the kind of experiment: Growth inhibition and isobologram/combination index, H526. It counts as cell-based, human. The note with it: for effect of combination with 30C10-PBD: H526 cells; for IC50: H526, 5 days, alone. As for the experimental part: (§1) Two SCLC cell lines H526 and H1048, which expresses ˜2,500 copies of TMEFF1 on the cell surface per cell, were seeded onto 96 well plates at 2,000 cells/well on the day of treatment. To distinguish synergy from additivity of the combination of 30C10-PBD with niraparib (selleckchem, Cat # S2741), etoposide (Cell Signaling Technology, Cat #2200S) or cisplatin (Sigma, Cat # P4394), for each combination, a specific isobologram was constructed and the combination-index was calculated as described by Chou, TC and Talalay P (Quanttative analysis of dose-effect relationships: the combined effects of multiple drugs or enzyme inhibitors, Adv Enzyme Regul, 1984). IC50 value was defined as the drug concentration reducing by 50% the growth of treated cells compared with control. IC50 values of each drug was determined by plating H526 or H1048 cells and adding 30C10-PBD, niraparib, etoposide or cisplatin at 10-fold dilutions spanning their probable range of activity. Concentrations ranging from 0.0001-1 ug/ml were used for 30C10-PBD, from 0.01 to 100 uM for Niraparib, from 0.001-10 uM for etoposide and from 0.01-100 uM for cisplatin. Cell viability was measured 5 days later by CellTiter Glo® Luminescent Cell viability Assay™ (Promega, Madison, Wis.) according to manufacturer's instructions. Each IC50 was graphically derived from the growth curve graphed by Prism™ showing percent survival vs log drug concentrations.
(§2) Combination-index (CI) was defined as follows: CI=[C]A50/IC50A+[C]B50/IC50B, where [C]A50 and [C]B50 are the concentrations in combination inducing the IC50 effect. A CI of less than, equal to, or more than 1 indicates, respectively, synergy, additivity, or antagonism.
(§3) The 50% growth-inhibitory activity of the drug combinations was measured after 5 days of treatment. The line of additivity for the isobologram was constructed by interpolating the two points corresponding to the IC50 of the two drugs alone. Graphically, synergy, additivity, and antagonism are indicated by a point plotted below, on, or above the line of additivity, respectively.

For test [2], the system named is H1048 cells. As to the kind of experiment: Growth inhibition and isobologram/combination index, H1048. The format is cell-based, human. Particulars: for effect of combination with 30C10-PBD: H1048 cells; for IC50: H1048, 5 days, alone. On the procedure:
as §1, §2, §3

The mark [3] stands for this setting: H526, combination with 30C10-PBD 0.3 ng/ml.
Setting [4] is: H526, combination with 30C10-PBD 0.6 ng/ml.
The mark [5] stands for this setting: H1048, combination with 30C10-PBD 0.1 ng/ml.
The mark [6] stands for this setting: H1048, combination with 30C10-PBD 0.3 ng/ml.

By IC50 is commonly meant the concentration needed to halve the response being measured. Consider `NC(=O)c1cccc2cn(-c3ccc([C@@H]4CCCNC4)cc3)nc12` [Niraparib, niraparib], for which the CI is 0.762 in test [1] (setting [3]), 0.619 in test [1] (setting [4]), 0.949 in test [2] (setting [5]) and 0.888 in test [2] (setting [6]). Moreover, the effect result in test [1] (setting [3]) is reported as “synergy (A CI of less than, equal to, or more than 1 indicates, respectively, synergy, additivity, or antagonism)”; in test [1] (setting [4]) it was “synergy (A CI of less than, equal to, or more than 1 indicates, respectively, synergy, additivity, or antagonism)”; in test [2] (setting [5]), “synergy (A CI of less than, equal to, or more than 1 indicates, respectively, synergy, additivity, or antagonism)”; in test [2] (setting [6]), “synergy (A CI of less than, equal to, or more than 1 indicates, respectively, synergy, additivity, or antagonism)”. Further, the “effect of combination with 30C10-PBD” value in test [1] and in test [2] was “Synergistic effect” throughout. Further, the IC50 was 3240 nM in test [1] (Homo sapiens, NCI-H526, 120 h) and 1070 nM in test [2] (Homo sapiens, NCI-H1048, 120 h).

`N.N.[Cl][Pt][Cl]` [Cisplatin, cisplatin]: the IC50 in test [1] came out at 240 nM; in test [2] it was 620 nM. Besides, the CI in test [1] (setting [3]) is on record as 0.865; in test [1] (setting [4]), 0.703; in test [2] (setting [5]), 0.985; in test [2] (setting [6]), 1.008. In addition, the effect result in test [1] (setting [3]) is recorded as “synergy (A CI of less than, equal to, or more than 1 indicates, respectively, synergy, additivity, or antagonism)”; in test [1] (setting [4]), “synergy (A CI of less than, equal to, or more than 1 indicates, respectively, synergy, additivity, or antagonism)”; in test [2] (setting [5]), “additive”; in test [2] (setting [6]), “additive”. The “effect of combination with 30C10-PBD” value in test [1] is given as “synergistic effects”; in test [2], “additive effects”.

Regarding `COc1cc([C@@H]2c3cc4c(cc3[C@@H](O[C@@H]3O[C@@H]5CO[C@@H](C)O[C@H]5[C@H](O)[C@H]3O)[C@H]3COC(=O)[C@H]23)OCO4)cc(OC)c1O` [Etoposide, etoposide], the figures for the IC50 in test [1] and in test [2] were 330 nM and 160 nM, respectively. Besides, the CI was 0.847 in test [1] (setting [3]), 0.801 in test [1] (setting [4]), 0.932 in test [2] (setting [5]) and 0.998 in test [2] (setting [6]). The effect entry was “synergy (A CI of less than, equal to, or more than 1 indicates, respectively, synergy, additivity, or antagonism)” in test [1] (setting [3]); “synergy (A CI of less than, equal to, or more than 1 indicates, respectively, synergy, additivity, or antagonism)” in test [1] (setting [4]); “synergy (A CI of less than, equal to, or more than 1 indicates, respectively, synergy, additivity, or antagonism)” in test [2] (setting [5]); “synergistic effect” in test [2] (H1048, combination with 30C10-PBD 0.1 ng/ml, listed as etoposide); “additive” in test [2] (setting [6]); “additive effect” in test [2] (H1048, combination with 30C10-PBD 0.3 ng/ml, listed as etoposide). Besides, the “effect of combination with 30C10-PBD” value in test [1] is “synergistic effect”.

These data come from patent US11312769B2, “Anti-TMEFF1 antibodies and antibody drug conjugates” (Bluefin BioMedicine, Inc., priority 2017, dated 2022).
